In patent EP3366286A1, “COMPOUNDS FOR TREATING SEPSIS” (Keller, Johannes, priority 2017, dated 2018):
“Also recorded” adds a separate entry of the source.

How the values were obtained:
[1] = tested on: bone marrow-derived macrophages; assay: Cytokine mRNA expression (qRT-PCR) in primary macrophages stimulated with LPS and/or PCT; format: cell-based, mouse; conditions: macrophages in vitro, LPS plus PCT, mRNA levels (Figure 5C)
Protocol: RNA was isolated using the RNeasyMini kit (Qiagen). For qRT-PCR expression analysis, 1 µg of RNA was reverse transcribed using SuperScriptIII (Invitrogen) according to the manufacturer's instructions. qRT-PCR analysis was performed using predesigned TaqMan gene expression assays (Applied Biosystems) and Gapdh as internal control.
Primary macrophages were generated from bone marrow cells cultured in DMEM supplemented 10% FCS and 40 ng/ml M-CSF for 7 days. Primary DC were generated from mouse bone marrow cells which were grown in RPMI 1640 medium with 10% FBS supplemented with 100 U/ml GM-CSF and 20 ng/ml IL-4 for 7 days. For γδT cell preparations, spleens were dissected and processed through a 40-µm filter, followed by lysis of erythrocytes. γδT lymphocytes were subsequently purified using magnetic labeled beads (Miltenyi Biotec, #130-092-125). For the generation of primary osteoblasts, bone marrow cells were differentiated for 10 days in the presence of 25 µg/ml ascorbic acid and 5 mM β-glycerophosphate as described previously (Keller, J., et al. Calcitonin controls bone formation by inhibiting the release of sphingosine 1-phosphate from osteoclasts. Nat Commun 5, 5215 (2014)). […]

WT mice [2] = assay: Serum cytokine levels (ELISA) after sublethal LPS challenge; format: in vivo; conditions: 10 h after 10 mg/kg LPS, single injection of 100 mg/kg ip (Figure 5D)
Protocol: (§1) Nat Protoc 4, 31-36 (2009). Briefly, an approximately 1 cm abdominal midline incision was made, followed by exposure of the cecum. After ligation, the cecum was punctured three times through and through with a 19-gauge needle and a small portion of feces was pressed out. After repositioning of the bowel, the abdomen was closed in layers using surgical sutures and metallic clips, and 1 ml of 0.9% NaCl (37° Celsius) was slowly injected subcutaneously for resuscitation. For induction of lethal endotoxemia, mice received an intraperitoneal (ip) injection of 40 mg/kg LPS. Survival was monitored at least every 6 h for 7 days after which the experiments were terminated. For pharmacologic proof-of-principle experiments involving II17a, mice received 100 µg/kg PCT and/or 2.5 µg/kg antibody treatment ip 30 minutes before and 12h after induction of septic shock through 40 mg/kg LPS ip. Non-specific IgG was used at equal concentrations. Olcegepant (100 mg/kg) was administered intraperitoneally or subcutaneously as indicated. For in vivo experiments involving expression, histological, and FACS analyses, mice were challenged with a sublethal dose of LPS (10 mg/kg ip). […]
Serum was obtained by cardiac puncture. […] Serum concentrations of PCT, CT and CGRP were measured by ELISA (Kamiya #KT-25866, Bachem #S-1488.0001 BA, S-1167.0001 BA).

WT mice [3] = assay: Survival in lethal endotoxemia (40 mg/kg LPS ip), monitored for 7 days; format: in vivo
Protocol: Nat Protoc 4, 31-36 (2009). Briefly, an approximately 1 cm abdominal midline incision was made, followed by exposure of the cecum. After ligation, the cecum was punctured three times through and through with a 19-gauge needle and a small portion of feces was pressed out. After repositioning of the bowel, the abdomen was closed in layers using surgical sutures and metallic clips, and 1 ml of 0.9% NaCl (37° Celsius) was slowly injected subcutaneously for resuscitation. For induction of lethal endotoxemia, mice received an intraperitoneal (ip) injection of 40 mg/kg LPS. Survival was monitored at least every 6 h for 7 days after which the experiments were terminated. For pharmacologic proof-of-principle experiments involving II17a, mice received 100 µg/kg PCT and/or 2.5 µg/kg antibody treatment ip 30 minutes before and 12h after induction of septic shock through 40 mg/kg LPS ip. Non-specific IgG was used at equal concentrations. Olcegepant (100 mg/kg) was administered intraperitoneally or subcutaneously as indicated. For in vivo experiments involving expression, histological, and FACS analyses, mice were challenged with a sublethal dose of LPS (10 mg/kg ip). The use of in vivo experiments, especially CLP, was kept to a minimum throughout the study (replace, reduce, refine) in accordance to current recommendations for animal welfare in sepsis research (Lilley 2015). Experimental procedures were performed with approval from the animal care committees of the University Medical Center Hamburg-Eppendorf and the Behörde für Umwelt und Gesundheit der Hansestadt Hamburg.
The number of samples was chosen according to established standards providing sufficient statistical power to enable the detection of biologically relevant differences in animal models. Data were analyzed by two-tailed Student's t-test using Excel software. In the case of multiple comparisons, Bonferroni correction was used. Survival analyses were performed using the log-rank-test. If not indicated otherwise, all data are reported as mean ± SD. p<0.05 was considered statistically significant.

WT mice [4] = assay: Survival after cecal ligation and puncture (CLP); format: in vivo; conditions: 100 mg/kg subcutaneous every 12h (Figure 5F)
Protocol: as §1, with “indicated.” for “indicated. For in vivo experiments involving expression, histological, and FACS analyses, mice were challenged with a sublethal dose of LPS (10 mg/kg ip).”
(§2) The number of samples was chosen according to established standards providing sufficient statistical power to enable the detection of biologically relevant differences in animal models. Data were analyzed by two-tailed Student's t-test using Excel software. […]

Calca-deficient mice = assay: Survival in lethal endotoxemia (40 mg/kg LPS ip); format: in vivo; conditions: 100 mg/kg ip co-administered with (immediately before) 40 mg/kg LPS ip (Figure 5G)
Protocol: as §1, with “indicated.” for “indicated. For in vivo experiments involving expression, histological, and FACS analyses, mice were challenged with a sublethal dose of LPS (10 mg/kg ip).”
as §2

αCgrp-deficient mice = assay: Survival in lethal endotoxemia (40 mg/kg LPS ip); format: in vivo; conditions: 100 mg/kg ip immediately before 40 mg/kg LPS (Figure 5H)
Protocol: as §1, with “indicated.” for “indicated. For in vivo experiments involving expression, histological, and FACS analyses, mice were challenged with a sublethal dose of LPS (10 mg/kg ip).”
as §2

**Q.** `NCCCC[C@H](NC(=O)[C@@H](Cc1cc(Br)c(O)c(Br)c1)NC(=O)N1CCC(N2Cc3ccccc3NC2=O)CC1)C(=O)N1CCN(c2ccncc2)CC1` [olcegepant, N-((1R)-2-(((1S)-5-amino-1-((4-(pyridin-4-yl)piperazin-1-yl)carbonyl)pentyl)amino)-1-(3,5-dibromo-4-hydroxybenzyl)-2-oxoethyl)-4-(2-oxo-1,4-dihydroquinazolin-3(2H)-yl)piperidine-1-carboxamide] was tested. Which “LPS-dependent stimulatory effect of PCT on II1b expression” value [1] did it give?
**A.** Its value is “inhibited”.

**Q.** What about the “LPS-dependent stimulatory effect of PCT on II6 expression” value [1] of the same molecule?
**A.** Its value is “inhibited”.

**Q.** What about the II1b levels (WT mice [2]) of the same molecule?
**A.** Its II1b levels is “significant reduction”.

**Q.** And the II17a levels (WT mice [2])?
**A.** The II17a levels was “significant reduction”.

**Q.** And the mortality (WT mice [3]; 100 mg/kg ip immediately before 40 mg/kg LPS ip (Figure 5E))?
**A.** The mortality was “significant reduction of mortality”.

**Q.** And the survival (WT mice [3]; intermittent subcutaneous treatment 100 mg/kg every 12 hours, starting 4h after ip LPS challenge (Figure 5I))?
**A.** The survival was “significantly prolonged survival”.

**Q.** What about the mortality (WT mice [3]; single 100 mg/kg ip 4h after 40 mg/kg LPS ip, into the inflamed peritoneal cavity (Figure 12)) of the same molecule?
**A.** Its mortality is “increased mortality; also recorded: decreased survival”.

**Q.** What about the survival (WT mice [3]; single subcutaneous injection 100 mg/kg 4h after ip LPS challenge (Figure 5I)) of the same molecule?
**A.** The survival was “trend towards improved survival”.

**Q.** What about the survival (WT mice [3]; subcutaneous 4h before LPS (40 mg/kg ip), prophylactic (Figure 5J)) of the same molecule?
**A.** Its survival is “favorable effect”.

**Q.** What about the mortality (WT mice [4]) of the same molecule?
**A.** The mortality was “significantly reduced”.

**Q.** What about the survival (Calca-deficient mice) of the same molecule?
**A.** Its survival is “did not further improve the survival”.

**Q.** What about the mortality rates (αCgrp-deficient mice) of the same molecule?
**A.** Its mortality rates is “significantly improved mortality rates”.
